Experimental data published in ChEMBL document CHEMBL1124620, “New 1,4-dihydropyridine derivatives combining calcium antagonism and alpha-adrenolytic properties” (J Med Chem, 1989).

Assays:
Rattus norvegicus = organism: Rattus norvegicus; experiment: Calcium antagonistic activity was evaluated by in vitro inhibition of [3H]nitrendipine binding on rat cerebral cortex; type: functional
[1] = molecular target: T1, Adrenergic receptor alpha-2 (Rattus norvegicus, UniProt P22086+P19328+P22909); experiment: Alpha-2-adrenolytic activity was assessed from the ability to inhibit [3H]yohimbine binding to rat cerebral cortex preparation; type: tissue-based
T1 sequence (P22086 whole entry): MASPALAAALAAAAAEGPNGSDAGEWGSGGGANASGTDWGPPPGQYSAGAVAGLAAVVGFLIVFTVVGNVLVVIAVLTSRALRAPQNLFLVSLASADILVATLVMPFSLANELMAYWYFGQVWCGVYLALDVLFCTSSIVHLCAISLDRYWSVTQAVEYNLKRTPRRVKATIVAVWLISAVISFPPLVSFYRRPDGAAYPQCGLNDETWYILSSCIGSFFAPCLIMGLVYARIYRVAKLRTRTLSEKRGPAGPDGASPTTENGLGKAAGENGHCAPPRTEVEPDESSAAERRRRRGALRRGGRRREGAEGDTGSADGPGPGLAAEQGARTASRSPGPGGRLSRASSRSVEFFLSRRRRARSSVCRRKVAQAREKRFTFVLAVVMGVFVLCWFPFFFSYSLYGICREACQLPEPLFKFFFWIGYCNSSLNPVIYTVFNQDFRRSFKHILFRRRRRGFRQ
T1 sequence (P19328 whole entry): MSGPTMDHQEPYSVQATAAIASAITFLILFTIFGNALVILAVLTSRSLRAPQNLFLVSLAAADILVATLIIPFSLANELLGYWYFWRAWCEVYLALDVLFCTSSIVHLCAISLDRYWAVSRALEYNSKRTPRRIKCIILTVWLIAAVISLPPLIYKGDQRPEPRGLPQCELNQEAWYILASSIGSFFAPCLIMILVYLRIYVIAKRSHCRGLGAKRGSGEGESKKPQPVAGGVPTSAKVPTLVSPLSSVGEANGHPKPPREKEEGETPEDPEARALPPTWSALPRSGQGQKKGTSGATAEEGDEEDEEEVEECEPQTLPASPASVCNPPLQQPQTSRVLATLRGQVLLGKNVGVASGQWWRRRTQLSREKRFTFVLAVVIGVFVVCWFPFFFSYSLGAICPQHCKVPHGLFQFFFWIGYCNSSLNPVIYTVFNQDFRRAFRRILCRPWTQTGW
T1 sequence (P22909 whole entry): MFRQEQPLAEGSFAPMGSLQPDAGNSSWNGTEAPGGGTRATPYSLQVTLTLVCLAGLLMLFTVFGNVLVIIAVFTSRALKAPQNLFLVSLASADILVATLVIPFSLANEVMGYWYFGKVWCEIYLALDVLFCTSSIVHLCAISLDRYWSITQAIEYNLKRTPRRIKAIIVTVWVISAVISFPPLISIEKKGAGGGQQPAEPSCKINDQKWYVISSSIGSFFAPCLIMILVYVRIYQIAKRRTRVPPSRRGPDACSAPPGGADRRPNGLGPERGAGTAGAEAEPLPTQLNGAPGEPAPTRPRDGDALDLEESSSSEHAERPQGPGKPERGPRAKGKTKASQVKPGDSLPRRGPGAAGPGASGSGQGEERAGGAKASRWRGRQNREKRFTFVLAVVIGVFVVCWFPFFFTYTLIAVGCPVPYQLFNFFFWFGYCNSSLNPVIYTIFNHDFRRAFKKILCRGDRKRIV

[2] = molecular target: T2, Adrenergic receptor alpha-1 (Rattus norvegicus, UniProt P15823+P23944+P43140); experiment: Alpha-1-adrenolytic activity was assessed in vitro from the ability to inhibit norepinephrine-induced contraction of rat aorta preparation
T2 sequence (P15823 whole entry): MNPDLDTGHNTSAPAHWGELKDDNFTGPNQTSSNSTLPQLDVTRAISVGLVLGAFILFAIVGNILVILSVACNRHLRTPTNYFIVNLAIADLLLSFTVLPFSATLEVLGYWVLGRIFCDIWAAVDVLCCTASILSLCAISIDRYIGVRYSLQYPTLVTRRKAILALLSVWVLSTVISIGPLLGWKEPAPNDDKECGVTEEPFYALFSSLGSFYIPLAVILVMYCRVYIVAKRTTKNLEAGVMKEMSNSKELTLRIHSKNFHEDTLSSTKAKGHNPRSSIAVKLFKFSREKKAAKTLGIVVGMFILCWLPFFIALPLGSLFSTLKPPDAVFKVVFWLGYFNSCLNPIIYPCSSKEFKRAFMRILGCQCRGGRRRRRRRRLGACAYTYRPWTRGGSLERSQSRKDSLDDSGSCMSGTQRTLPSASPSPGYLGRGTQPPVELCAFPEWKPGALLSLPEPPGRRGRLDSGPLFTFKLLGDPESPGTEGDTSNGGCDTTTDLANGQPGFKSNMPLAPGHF
T2 sequence (P23944 whole entry): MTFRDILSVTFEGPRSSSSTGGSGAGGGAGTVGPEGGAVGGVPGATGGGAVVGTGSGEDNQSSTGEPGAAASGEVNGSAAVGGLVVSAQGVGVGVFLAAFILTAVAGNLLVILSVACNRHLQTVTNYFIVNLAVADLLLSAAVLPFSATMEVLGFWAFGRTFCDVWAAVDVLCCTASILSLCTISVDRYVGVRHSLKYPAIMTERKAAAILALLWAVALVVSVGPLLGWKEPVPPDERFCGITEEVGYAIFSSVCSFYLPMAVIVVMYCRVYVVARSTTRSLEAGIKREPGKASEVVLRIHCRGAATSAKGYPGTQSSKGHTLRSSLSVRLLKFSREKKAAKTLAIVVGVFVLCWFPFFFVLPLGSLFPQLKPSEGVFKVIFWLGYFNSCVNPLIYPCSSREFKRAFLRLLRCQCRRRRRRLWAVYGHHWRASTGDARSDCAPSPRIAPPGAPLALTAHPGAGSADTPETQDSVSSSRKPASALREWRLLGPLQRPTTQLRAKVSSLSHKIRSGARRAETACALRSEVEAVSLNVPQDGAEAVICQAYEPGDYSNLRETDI
T2 sequence (P43140 whole entry): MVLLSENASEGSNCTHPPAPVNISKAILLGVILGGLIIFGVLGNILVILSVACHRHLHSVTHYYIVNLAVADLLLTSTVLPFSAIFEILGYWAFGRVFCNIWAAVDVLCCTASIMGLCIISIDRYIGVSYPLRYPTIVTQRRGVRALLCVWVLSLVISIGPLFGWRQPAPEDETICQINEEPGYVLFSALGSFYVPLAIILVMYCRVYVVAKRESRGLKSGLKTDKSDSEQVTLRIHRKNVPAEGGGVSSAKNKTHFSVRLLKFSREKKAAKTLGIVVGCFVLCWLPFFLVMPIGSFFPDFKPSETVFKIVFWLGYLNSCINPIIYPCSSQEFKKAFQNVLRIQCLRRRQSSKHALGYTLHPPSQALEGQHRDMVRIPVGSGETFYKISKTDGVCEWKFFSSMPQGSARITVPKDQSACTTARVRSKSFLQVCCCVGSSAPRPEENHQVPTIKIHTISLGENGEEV

[3] = molecular target: T2, Adrenergic receptor alpha-1; experiment: Alpha-1-adrenolytic activity was assessed from the ability to inhibit [3H]prazosin binding to rat cerebral cortex preparation; type: tissue-based
Sus scrofa = organism: Sus scrofa; experiment: Calcium antagonistic activity was evaluated from the inhibition of CaCl2-induced contraction of depolarized pig coronary artery; type: functional; conditions: Sus scrofa, Coronary artery

| Structure (SMILES) | IC50 (Rattus norvegicus) [nM] | IC50 [1] [µM] | IC50 [2] | IC50 [3] [µM] | IC50 (Sus scrofa) [nM] |
| --- | --- | --- | --- | --- | --- |
| COc1cc2nc(N3CCN(C(=O)c4ccco4)CC3)nc(N)c2cc1OC [PRAZOSIN] | 3000 | – | – | – | – |
| COC(=O)C1=C(C)NC(C)=C(C(=O)OCCN(C)C[C@H]2COc3ccccc3O2)[C@@H]1c1cccc([N+](=O)[O-])c1.Cl (racemic) | – | 0.21 | 0.00003 M | 1.9 | – |
| COC(=O)C1=C(C)NC(C)=C(C(=O)OCCN(C)Cc2ccccc2)C1c1cccc([N+](=O)[O-])c1 (centres undefined) [NICARDIPINE] | 0.026 | 1.4 | > 0.00001 M | 3.6 | 0.3 |
| CO/C(O)=C1\C(C)=NC(C)=C(C(=O)OCCN(C)C[C@@H]2COc3ccccc3O2)[C@H]1c1cccc([N+](=O)[O-])c1.Cl | 1 | 19 | >> 0.00001 M | 2 | 2.5 |
| CC1=NC(C)=C(C(=O)OCCN(C)CC2COc3ccccc3O2)C(c2cccc([N+](=O)[O-])c2)/C1=C(\O)OC(C)C.Cl (centres undefined) | 0.06 | 0.83 | >> 0.00003 M | 3.5 | 4 |
